“And” between values parts separate entries of the source, which are not always exact repeats. Equal entries are not always repeated. Toxic doses and inconclusive results are not listed. Starred links: 1 amine or outer side, 2 acyl side, 3 side chain; linkers in the order of their positions; H or OH if unused. Positions of bridges follow the written chain, without caps; N, C: chain ends. Non-standard residues stand in square brackets, D forms with d. Residues, ends and D or L forms follow the SMILES beside them. Chains are numbered I, II in the order given. Actinocin(1to9) = Cc1c2oc3c(C)ccc(C(=O)[*:2])c3nc-2c(C(=O)[*:1])c(N)c1=O; NMeV = CN[CH](C(=O)O)C(C)C; Sar = CNCC(=O)O
Test system: CD2F1 mice, L1210 leukemia ip, survival T/C
Test: NCI In Vivo Anticancer Drug Screen. Data for tumor model L1210 Leukemia (intraperitoneal) in CD2F1 (CDF1) mice
Details: endpoint: mean survival time, higher = longer survival
Method in brief: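 Activity against a transplanted murine tumor was judged by comparing the compound group with a vehicle group. The outcome in the treated animals was divided by that in the controls.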

[1] = dose: 50.0 mg/kg/injection, schedule: Q01DX009 (ip), vehicle: saline with Tween-80
[2] = dose: 100.0 mg/kg/injection, schedule: Q01DX009 (ip), vehicle: saline with Tween-80
[3] = dose: 200.0 mg/kg/injection, schedule: Q01DX009 (ip), vehicle: saline with Tween-80
[4] = dose: 100.0 mg/kg/injection, schedule: Q04DX003 (ip), vehicle: saline with Tween-80
[5] = dose: 200.0 mg/kg/injection, schedule: Q04DX003 (ip), vehicle: saline with Tween-80
[6] = dose: 100.0 mg/kg/injection, schedule: Q01DX001 (ip), vehicle: saline with Tween-80
[7] = dose: 400.0 mg/kg/injection, schedule: Q01DX001 (ip), vehicle: saline with Tween-80
[8] = dose: 12.5 mg/kg/injection, schedule: Q01DX009 (ip), vehicle: saline with Tween-80
[9] = dose: 25.0 mg/kg/injection, schedule: Q01DX009 (ip), vehicle: saline with Tween-80
[10] = dose: 100.0 mg/kg/injection, schedule: Q01DX009 (ip), vehicle: saline
[11] = dose: 200.0 mg/kg/injection, schedule: Q01DX009 (ip), vehicle: saline

CCC(C)C1NC(=O)C(NC(=O)c2c3nc4c(C(=O)NC5C(=O)NC(C(C)CC)C(=O)N6CCCC6C(=O)N(C)CC(=O)N(C)C(C(C)C)C(=O)OC5C)ccc(C)c4oc-3c(C)c(=O)c2N)C(C)OC(=O)C(C(C)C)N(C)C(=O)CN(C)C(=O)C2CCCN2C1=O (stereo not drawn) (I: TIP[Sar][NMeV] / II: TIP[Sar][NMeV]; ester I:1-I:C, II:1-II:C; linker I:N-II:N via Actinocin(1to9); configuration not given here)
T/C (dose: 0.25 mg/kg/injection, schedule: Q01DX001 (ip), vehicle: saline): 112 % of control | T/C (dose: 0.5 mg/kg/injection, schedule: Q01DX001 (ip), vehicle: saline): 120 % of control

O=C(O)c1ccc2c(c1Cl)C(=O)c1ccccc1C2=O
T/C [1]: 100 % of control | T/C [2]: 103 % of control | T/C [3]: 100 % of control

C1CCCCCC2=C(CCCC1)CCCO2
T/C (dose: 6.25 mg/kg/injection, schedule: Q04DX003 (ip), vehicle: saline with Tween-80): 91 % of control | T/C (dose: 12.5 mg/kg/injection, schedule: Q04DX003 (ip), vehicle: saline with Tween-80): 91 % of control | T/C (dose: 25.0 mg/kg/injection, schedule: Q04DX003 (ip), vehicle: saline with Tween-80): 86 % of control | T/C (dose: 50.0 mg/kg/injection, schedule: Q04DX003 (ip), vehicle: saline with Tween-80): 89 % of control | T/C [4]: 94 % of control | T/C [5]: 94 % of control

c1ccc2ncccc2c1
T/C (dose: 100.0 mg/kg/injection, schedule: Q01DX009 (ip), vehicle: other): 103 % of control | T/C (dose: 200.0 mg/kg/injection, schedule: Q01DX009 (ip), vehicle: other): 101 % of control

CC1(C)OC2COC(c3cc(C(N)=O)n[nH]3)C2O1 (stereo not drawn)
T/C [6]: 106 % of control | T/C (dose: 200.0 mg/kg/injection, schedule: Q01DX001 (ip), vehicle: saline with Tween-80): 101 % of control | T/C [7]: 105 % of control

CCCCCCCCCCOC(=O)COc1ccc(C(C)(C)C)cc1
T/C [8]: 106 % of control | T/C [9]: 97 % of control | T/C [1]: 97 % of control

OC1C2CCC1C(N1CCOCC1)CC2 (stereo not drawn)
T/C [1]: 103 % of control | T/C [2]: 109 % of control | T/C [4]: 98 % of control | T/C [3]: 97 % of control | T/C [5]: 102 % of control

CC(=O)ON1C(=O)C2C3C=CC(O3)C2C1=O (stereo not drawn)
T/C (dose: 12.5 mg/kg/injection, schedule: Q01DX009 (ip), vehicle: water): 100 % of control | T/C (dose: 25.0 mg/kg/injection, schedule: Q01DX009 (ip), vehicle: water): 91 % of control | T/C (dose: 50.0 mg/kg/injection, schedule: Q01DX009 (ip), vehicle: water): 96 % of control

NC(Cc1ccc([N+](=O)[O-])cc1)C(=O)O (stereo not drawn)
T/C [10]: 96 % of control | T/C (dose: 100.0 mg/kg/injection, schedule: Q04DX003 (ip), vehicle: saline): 97 % of control | T/C [11]: 98 % of control | T/C (dose: 200.0 mg/kg/injection, schedule: Q04DX003 (ip), vehicle: saline): 100 % of control | T/C (dose: 400.0 mg/kg/injection, schedule: Q01DX009 (ip), vehicle: saline): 94 % of control | T/C (dose: 400.0 mg/kg/injection, schedule: Q04DX003 (ip), vehicle: saline): 103 % of control

CSCC(NC(=O)OCc1ccccc1)C(=O)O (stereo not drawn)
T/C [4]: 101 % of control | T/C [5]: 101 % of control

Cc1cn(C2CC3[O][Sn]([c]4ccccc4)([c]4ccccc4)[O]CC3O2)c(=O)[nH]c1=O (stereo not drawn)
T/C (dose: 0.75 mg/kg/injection, schedule: Q01DX005 (ip), vehicle: other): 90 % of control | T/C (dose: 0.78 mg/kg/injection, schedule: Q01DX005 (ip), vehicle: other): 96 % of control and 100 % of control | T/C (dose: 1.5 mg/kg/injection, schedule: Q01DX005 (ip), vehicle: other): 90 % of control | T/C (dose: 1.5 mg/kg/injection, schedule: Q01DX005 (ip), vehicle: saline): 89 % of control | T/C (dose: 3.0 mg/kg/injection, schedule: Q01DX005 (ip), vehicle: other): 95 % of control | T/C (dose: 3.0 mg/kg/injection, schedule: Q01DX005 (ip), vehicle: saline): 89 % of control | T/C (dose: 6.0 mg/kg/injection, schedule: Q01DX005 (ip), vehicle: saline): 97 % of control | T/C (dose: 6.25 mg/kg/injection, schedule: Q01DX005 (ip), vehicle: other): 203 % of control and 102 % of control and 105 % of control | T/C (dose: 6.25 mg/kg/injection, schedule: Q01DX009 (ip), vehicle: saline): 109 % of control | T/C (dose: 12.0 mg/kg/injection, schedule: Q01DX005 (ip), vehicle: other): 100 % of control | T/C (dose: 12.0 mg/kg/injection, schedule: Q01DX005 (ip), vehicle: saline): 104 % of control | T/C (dose: 12.5 mg/kg/injection, schedule: Q01DX009 (ip), vehicle: saline): 107 % of control | T/C (dose: 24.0 mg/kg/injection, schedule: Q01DX005 (ip), vehicle: other): 104 % of control | T/C (dose: 24.0 mg/kg/injection, schedule: Q01DX005 (ip), vehicle: saline): 103 % of control | T/C (dose: 25.0 mg/kg/injection, schedule: Q01DX009 (ip), vehicle: saline): 113 % of control | T/C (dose: 50.0 mg/kg/injection, schedule: Q01DX009 (ip), vehicle: saline): 110 % of control | T/C [10]: 103 % of control | T/C [11]: 115 % of control

CCN=C(N)c1ncnnc1N
T/C (dose: 100.0 mg/kg/injection, schedule: Q01DX001 (ip), vehicle: carboxymethylcellulose (CMC)): 104 % of control | T/C (dose: 200.0 mg/kg/injection, schedule: Q01DX001 (ip), vehicle: carboxymethylcellulose (CMC)): 102 % of control | T/C (dose: 400.0 mg/kg/injection, schedule: Q01DX001 (ip), vehicle: carboxymethylcellulose (CMC)): 102 % of control

O=C(Nc1ccccc1C(F)(F)F)OCCOc1ccccc1Cl
T/C (dose: 100.0 mg/kg/injection, schedule: Q01DX009 (ip), vehicle: Klucel (hydroxypropylcellulose) (HPC)): 103 % of control | T/C (dose: 400.0 mg/kg/injection, schedule: Q01DX009 (ip), vehicle: Klucel (hydroxypropylcellulose) (HPC)): 89 % of control

O=C1NC(O)c2ccccc2O1 (stereo not drawn)
T/C [8]: 101 % of control | T/C (dose: 12.5 mg/kg/injection, schedule: Q01DX009 (ip), vehicle: suspension in saline): 95 % of control | T/C [9]: 96 % of control | T/C (dose: 25.0 mg/kg/injection, schedule: Q01DX009 (ip), vehicle: suspension in saline): 97 % of control | T/C [1]: 98 % of control | T/C (dose: 50.0 mg/kg/injection, schedule: Q01DX009 (ip), vehicle: suspension in saline): 104 % of control | T/C [2]: 101 % of control and 108 % of control | T/C (dose: 100.0 mg/kg/injection, schedule: Q01DX009 (ip), vehicle: suspension in saline): 101 % of control | T/C [3]: 115 % of control and 106 % of control | T/C (dose: 200.0 mg/kg/injection, schedule: Q01DX009 (ip), vehicle: suspension in saline): 119 % of control | T/C (dose: 400.0 mg/kg/injection, schedule: Q01DX009 (ip), vehicle: suspension in saline): 95 % of control

CCOc1nc(=O)n(C2OC(CO)C(O)C2O)s1 (stereo not drawn)
T/C (dose: 12.5 mg/kg/injection, schedule: Q01DX005 (ip), vehicle: distilled water + Tween-80): 100 % of control | T/C (dose: 25.0 mg/kg/injection, schedule: Q01DX005 (ip), vehicle: distilled water + Tween-80): 101 % of control | T/C (dose: 50.0 mg/kg/injection, schedule: Q01DX005 (ip), vehicle: distilled water + Tween-80): 101 % of control | T/C (dose: 100.0 mg/kg/injection, schedule: Q01DX005 (ip), vehicle: distilled water + Tween-80): 97 % of control | T/C (dose: 200.0 mg/kg/injection, schedule: Q01DX005 (ip), vehicle: distilled water + Tween-80): 102 % of control

Nc1nc(-c2cccc([N+](=O)[O-])c2)c(N=Nc2cccc([N+](=O)[O-])c2)s1
T/C [6]: 89 % of control | T/C [7]: 90 % of control

CC(N)(CC(=O)O)C(=O)O (stereo not drawn)
T/C (dose: 100.0 mg/kg/injection, schedule: Q01DX009 (ip), vehicle: saline sonified): 97 % of control | T/C [4]: 92 % of control | T/C (dose: 200.0 mg/kg/injection, schedule: Q01DX009 (ip), vehicle: saline sonified): 95 % of control | T/C [5]: 97 % of control | T/C (dose: 400.0 mg/kg/injection, schedule: Q01DX009 (ip), vehicle: saline sonified): 96 % of control | T/C (dose: 400.0 mg/kg/injection, schedule: Q04DX003 (ip), vehicle: saline with Tween-80): 91 % of control

CS/C([S-])=N/N=C/c1ccccn1.[Cl][Pt+]
T/C [4]: 94 % of control | T/C [5]: 100 % of control

O=CO.[Co]
T/C (dose: 5.0 mg/kg/injection, schedule: Q01DX001 (ip), vehicle: saline): 106 % of control | T/C (dose: 10.0 mg/kg/injection, schedule: Q01DX001 (ip), vehicle: saline): 103 % of control | T/C (dose: 20.0 mg/kg/injection, schedule: Q01DX001 (ip), vehicle: saline): 106 % of control | T/C (dose: 40.0 mg/kg/injection, schedule: Q01DX001 (ip), vehicle: saline): 100 % of control

Source: PubChem BioAssay AID256 (DTP/NCI, 2004)
